This is an account of results in patent US12568960B2, “Adjuvant combinations as foliar uptake accelerator for herbicidal compositions” (Bayer Aktiengesellschaft, priority 2019, dated 2026).

The subject of one data set is cuticula of apple leaves. In words: Membrane (cuticle) penetration test. The protocol: The properties of the adjuvant combinations according to the invention as penetration enhancers were measured in a membrane penetration test on the cuticula of apple leaves.
Determination of bioavailability of various herbicides, plant growth regulators (PGRs) and safeners by cuticle penetration test.
The leaf cuticles were isolated enzymatically as described in the literature. The stomata-free cuticles were first dried under air and introduced into stainless steel diffusion cells. After the application of the test liquids to the original top side of the leaf and evaporation of liquid, the diffusion cells were transferred into thermostat blocks and loaded with water. At regular intervals, aliquot samples were taken, and the amount of active ingredient diffused was determined by means of HPLC. […] Detection was effected with a DAD detector. The results given in each case are the geometric penetration averages at the average measurement times. According to the variance, 10 repeat measurements were conducted.
Typically, a spray solution of the active ingredient (0.5 g of active ingredient/l) was produced. An aliquot was applied to an apple cuticle and left to dry. The operation was repeated 10 times. The amount absorbed through the cuticles in the uptake solution is determined by HPLC as described above. The measurements were made after 0, 6, 12, 24, 36 or 48 h.

A short description of data set [1]: Dynamic surface tension, bubble pressure method. Type of data set: physicochemical. As to conditions: 6 g/l. The protocol: Dynamic surface tension was determined via the bubble pressure method (BP2100 tensiometer, Krüss).
Setting [2] is: Table 8, mefenpyr-diethyl SC formulation, no adjuvant.
[3] abbreviates: Table 9, mefenpyr-diethyl SC formulation, no adjuvant.
[4] abbreviates: Table 7, bixlozone standard SC formulation, no adjuvant.
The mark [5] stands for this setting: Table 19, bixlozone SC formulation, no adjuvant.
Setting [6] is: Table 26, bixlozone EC formulation, no adjuvant.
[7] abbreviates: Table 24, Compound 3 WP20 formulation, cuticle from 2016, no adjuvant.
The mark [8] stands for this setting: Table 30, Compound 5 WP20 formulation, no adjuvant.
Setting [9] is: Table 31, Compound 6 WP20 formulation, no adjuvant.
Setting [10] is: Table 20, prohexadione-Ca EC formulation, no adjuvant.
[11] abbreviates: Table 12, Rinskor EC formulation, adjuvant 2 g/l.

With `CCOC(=O)C1=NN(c2ccc(Cl)cc2Cl)C(C)(C(=O)OCC)C1` (racemic) [Mefenpyr-diethyl, Diethyl (RS)-1-(2,4-dichlorophenyl)-4,5-dihydro-5-methyl-1H-pyrazole-3,5-dicarboxylate], in the data set with cuticula of apple leaves (setting [2]), the “Cuticle penetration 12 h in %” value is 4%, the “Cuticle penetration 24 h in %” value came to 9% and the “Cuticle penetration 48 h in %” value is 16%. For the same compound, in the data set on cuticula of apple leaves (setting [3]), the “Cuticle penetration 24 h in %” value stood at 17% and the “Cuticle penetration 48 h in %” value was found to be 59%.

For the compound `CC1(C)CON(Cc2ccc(Cl)cc2Cl)C1=O` [Bixlozone, 2-(2,4-Dichlorobenzyl)-4,4-dimethylisoxazolidin-3-one], in the data set with cuticula of apple leaves (setting [4]), the “Cuticle penetration 6 h in %” value is given as 21%, the “Cuticle penetration 12 h in %” value turned out to be 42% and the “Cuticle penetration 24 h in %” value came out at 62%. Also, in the data set with cuticula of apple leaves (setting [5]), the “Cuticle penetration 24 h in %” value is on record as 24% and the “Cuticle penetration 48 h in %” value is 73%. Besides, in the data set with cuticula of apple leaves (setting [6]), the “Cuticle penetration 6 h in %” value is 27%, the “Cuticle penetration 12 h in %” value is recorded as 29% and the “Cuticle penetration 24 h in %” value came out at 31%.

Turning to `NC(=O)c1ccc(C(F)(F)F)nc1O` [Compound 3], in the data set on cuticula of apple leaves (setting [7]), the “Cuticle penetration 12 h in %” value was determined as 0%, the “Cuticle penetration 24 h in %” value is given as 0% and the “Cuticle penetration 48 h in %” value is recorded as 0%.

On to `Cc1ccc2c(c1)C(Nc1ncc(C(C)(C)O)cn1)[C@@H](C)C2` (stereo partly drawn) [Compound 5], for which, in the data set on cuticula of apple leaves (setting [8]), the “Cuticle penetration 12 h in %” value is reported as 6%, the “Cuticle penetration 24 h in %” value turned out to be 14% and the “Cuticle penetration 48 h in %” value was 52%.

With `Cc1ccc2c(c1)C(Nc1nc3n(n1)CCCCS3)CCC2` (stereo not drawn) [Compound 6], in the data set on cuticula of apple leaves (setting [9]), the “Cuticle penetration 12 h in %” value is given as 0%, the “Cuticle penetration 24 h in %” value was found to be 0% and the “Cuticle penetration 48 h in %” value came to 2%.

For `CCC(=O)C1=C([O-])CC(C(=O)[O-])CC1=O.[Ca+2]` (stereo not drawn) [Prohexadione-Ca, Calcium 3-oxido-5-oxo-4-propionyl-cyclohex-3-enecarboxylate], in the data set with cuticula of apple leaves (setting [10]), the “Cuticle penetration 24 h in %” value amounted to 18% and the “Cuticle penetration 48 h in %” value is on record as 44%.

Consider `Cn1nc(C(F)(F)F)c(CS(=O)(=O)C2=NOC(C)(C)C2)c1OC(F)F` [Pyroxasulfone, 3-[5-(Difluoromethoxy)-1-methyl-3-(trifluoromethyl)pyrazol-4-ylmethylsulfonyl]-4,5-dihydro-5,5-dimethyl-1,2-oxazole], for which the “Cuticle penetration 24 h in %” value in the data set with cuticula of apple leaves (apple, 24 h, 0.5 g/l) came out at 2%.

Regarding `CCCCOCCOP(=O)(OCCOCCCC)OCCOCCCC` [TBEP, Tributoxyethyl phosphate], the “Penetration enhancement (in words)” value in the data set on cuticula of apple leaves (bixlozone, summary of Table 7) was “shows distinctly lower uptake of bixlozone than TEHP”; in the data set on cuticula of apple leaves (tembotrione (Laudis SC), summary of Tables 5 and 6) it was “does not enhance the uptake of tembotrione”.

As for `CCCCC(CC)COP(=O)(OCC(CC)CCCC)OCC(CC)CCCC` (stereo not drawn) [TEHP, Tris(2-ethylhexyl) phosphate], the “Penetration enhancement (in words)” value with cuticula of apple leaves (mefenpyr-diethyl, summary of Tables 8 and 9) was “has better penetration-enhancing properties compared to TBEP in the combination”. In data set [1], the “Dynamic surface tension 20 ms” value came out at 71.7 mN/m, the “Dynamic surface tension 50 ms” value is 71.7 mN/m, the “Dynamic surface tension 200 ms” value was 71.6 mN/m and the “Dynamic surface tension 500 ms” value worked out at 71.5 mN/m.

On to `CS(=O)(=O)c1ccc(C(=O)C2C(=O)CCCC2=O)c(Cl)c1COCC(F)(F)F` [Tembotrione], for which the “Cuticle penetration 6 h in %” value in the data set with cuticula of apple leaves (apple, 6 h, 0.5 g/l) is 0%. Also, the “Cuticle penetration 12 h in %” value with cuticula of apple leaves (apple, 12 h, 0.5 g/l) amounted to 0%.

As to Ammonium sulfate [AMS], in the data set with cuticula of apple leaves (setting [11]), the “Cuticle penetration 24 h in %” value was found to be 5% and the “Cuticle penetration 48 h in %” value came to 15%.
